System: SARS-CoV-2 (USA-WA1/2020/NR-52281)
Assay: Live native virus infection of A549-hACE2 versus A549-hACE2/TMPRSS2 cells
Format: cell-based
Details: virus 1 h, then compound

SMILES	efficacy against live virus upon overexpression of TMPRSS2
CCOC(=O)C=CC(CC1CCNC1=O)NC(=O)C(Cc1ccccc1)NC(=O)C(N)Cc1ccccc1 (centres unmarked) [SM141]	only a partial loss in efficacy
CCOC(=O)C=CC(CC1CCNC1=O)NC(=O)C(Cc1ccccc1)NC(=O)C(Cc1ccc(F)cc1)NC(=O)OC(C)(C)C (centres unmarked) [SM142]	only a partial loss in efficacy

Reference: paper PMC9662648 (Journal of the American Chemical Society, 2022)
